Results reported in patent publication US11596716B2, “Compounds and matrices for use in bone growth and repair” (Human BioMolecular Research Institute, priority 2013, dated 2023).
Values belong to the molecule of their own block, whether it stands above or below them.

Tests used:
[1] = tested on: Wnt transcription; test: WNT transcriptional reporter assay (Super(8×)TOPflash luciferase, HEK293T cells); assay type: cell-based; settings: Wnt3A-expressing vector, 20 hrs, relative to cells treated with DMSO alone, read-out: Wnt transcription potency
Text: Commercially available Super(8×)TOPflash vector driven by a (7×) TCF-firefly luciferase response element was transiently transfected into HEK293T cells, together with a TK-driven Renilla luciferase plasmid as an internal control to normalize the luminescence signal and a Wnt3A-expressing vector as the source of pathway activation. HEK293T cells were transfected with plasmids in DMEM plus 10% fetal bovine serum (FBS) for 8 hr, replated to 96-well plates in DMEM plus 10% FBS followed by treatment with compounds (1.6 nM to 5 M) (DMSO final concentration is 0.5%) for 20 hrs. Firefly and Renilla luciferase activities were measured and normalized by the Renilla luciferase values.

[2] = tested on: C2C12 cells; test: Alkaline Phosphatase (ALP) functional activity assay in C2C12 cells; assay type: cell-based, Mouse; settings: for activation at 0.5 µM: Mus musculus, C2C12, 144 h, compounds of Formula VI, normalized to DMSO treatment
Protocol: Alkaline Phosphatase (ALP) Functional Activity Assay: C2C12 cells were plated into 12-well plates with 7,000 cells/well in 1 mL growth media. […] 1, 2, 3, or 4 in 0.1% DMSO was added (500 nM). Half the media was exchanged with fresh media containing compound every 48 hrs. After 6 days, media was removed, ALP Lysis Buffer (10 mM Tris-HCl pH 8.0, 1 mM MgCl2, and 1% Triton X100) added, and cell lysate obtained (10 min incubation at RT) by centrifugation (5 min at 3500× g at 4° C.). Para-nitrophenol phosphate (pNPP) (2 mg/mL) was incubated with 50 μl cell lysate (10 mins, 37° C.). After addition of […] 0.02 N NaOH, absorbance OD405 was measured. Protein concentration was determined by Bradford protein assay. Results of ALP activity were plotted as nM pNP hydrolyzed/mg total protein. After normalizing control samples (i.e., DMSO-treated samples) to one-fold, the fold-changes were plotted to indicate the relative ALP activity. […] This protocol was applied to hMSC and E15 cells as well.

[3] = tested on: C2C12 cells; test: qPCR detection of osteogenic markers in C2C12 cells; assay type: cell-based, Mouse; settings: 500 nM, 6 days
[4] = tested on: C2C12 cells; test: Alizarin Red S staining (calcium deposition) in C2C12 cells; assay type: cell-based, Mouse; settings: 500 nM, 25 days of treatment
Protocol: Alizarin Red S Staining: C2C12 cells were cultured as described for the ALP functional activity assay (above, except compound was added every 48 hr for 25 days), but using 48-well plate format. On day 25, medium was removed and the cells were washed with PBS (calcium and magnesium free). Cells were fixed with 70% ethanol at room temperature for 30 mins, rinsed with water 3×. Following removal of water, 200 μl of Alizarin Red S (2%, pH 4.1) was added to each well and incubated for at least 20 mins. The dye was removed and the cells were washed with excess H2O four times with gentle mixing. The cells were covered with water to prevent evaporation and analyzed by plate reader or microscope. This protocol was applied to hMSC and E15 cells.

[5] = tested on: C2C12 cells; test: Cell proliferation/viability assay (Resazurin / Alamar blue) in C2C12 cells; assay type: cell-based, Mouse
Protocol: Cell proliferation/viability assay: Cells were seeded at a density of 500 cells/well on 96-well plates. After 24 hr, compound (i.e., 5 nM, 50 nM, 500 nM or 5000 nM) was added to the cells in the presence or absence of calcium phosphate matrix (5 mg/mL). […] At the specified time, 1 μg of Resazurin was added to each well of the 96-well plate and the fluorescence signal at 590 nm (excitation at 530 nm) was immediately measured. Readings were designated as time zero values (value0h). Cells were incubated for 1 hr before a second fluorescence measurement at 590 nm was made (value1h). The difference in 1 hr and 0 h (value1h−value0h) readings were used to plot the fold-change in cell proliferation/viability after normalizing to control conditions (i.e., DMSO vehicle treatment). Compounds of Formula II or IV that activate Wnt signaling and compounds of Formula VI that activate TLR signaling pathways were analyzed. This protocol was applied to hMSC and E15 cells as well. Cell proliferation was not robust in keeping with a narrow number of cells highly committed to the bone cell lineage.

[6] = tested on: C2C12 cells; test: qPCR of apoptosis biomarkers (Bax and Fos) in C2C12 cells; assay type: cell-based, Mouse; settings: 500 nM or 5 μM every 48 hrs, up to 25 days
[7] = tested on: hMSCs; test: Alkaline Phosphatase functional activity assay in hMSCs; assay type: cell-based, human; set-up: key to Alkaline Phosphatase activity, −matrix, 8 days / Alkaline Phosphatase activity, +matrix, 8 days / Alkaline Phosphatase activity, −matrix, 25 days / Alkaline Phosphatase activity, +matrix, 25 days: fold-change vs DMSO-treated control (control = 1); settings: 500 nM
[8] = tested on: hMSCs; test: Alamar blue cell viability assay in hMSCs; assay type: cell-based, human; settings: 500 nM, 25-day-old hMSCs
Protocol: Cell proliferation/viability assay: Cells were seeded at a density of 500 cells/well on 96-well plates. After 24 hr, compound (i.e., 5 nM, 50 nM, 500 nM or 5000 nM) was added to the cells in the presence or absence of calcium phosphate matrix (5 mg/mL). One-half of the media was replaced with fresh media containing compound every 48 hours for 8 days. At the specified time, 1 μg of Resazurin was added to each well of the 96-well plate and the fluorescence signal at 590 nm (excitation at 530 nm) was immediately measured. Readings were designated as time zero values (value0h). Cells were incubated for 1 hr before a second fluorescence measurement at 590 nm was made (value1h). The difference in 1 hr and 0 h (value1h−value0h) readings were used to plot the fold-change in cell proliferation/viability after normalizing to control conditions (i.e., DMSO vehicle treatment). Compounds of Formula II or IV that activate Wnt signaling and compounds of Formula VI that activate TLR signaling pathways were analyzed. This protocol was applied to hMSC and E15 cells as well. Cell proliferation was not robust in keeping with a narrow number of cells highly committed to the bone cell lineage.
The assay for cell proliferation followed the same procedure with hMSCs as described for C2C12 cells (Example 7).

[9] = tested on: hMSCs; test: qPCR of apoptosis biomarkers (Bax and Fos) in hMSCs; assay type: cell-based, human
[10] = tested on: hMSCs; test: Transwell migration of hMSCs to calcium phosphate matrix; assay type: cell-based, human; settings: 500 nM
Protocol: Human MSC migration to the site of bone injury is an important part of the repair process. […] After 8 hrs, compounds were washed off the cells and cells placed in a traditional transwell migration system. The top reservoir contained serum-free DMEM and the bottom reservoir contained DMEM plus 2% FBS. After incubation overnight, non-migrated cells were removed, migrated cells (stuck in the bottom chamber) were then fixed with 70% EtOH (40 mins) and total migrated cells were counted under a microscope after staining with 1 mg/mL of crystal violet (1 hr). hMSCs treated with compound 2 (500 nM, 8 hr) induced a 10-fold greater cell migration to the matrix than DMSO-pre-treated cells under the conditions described above. In a separate experiment, matrix that was pre-coated with compound 4 (as prepared in Example 5) was placed in the bottom chamber and migration of hMSCs from the top chamber was evaluated. Compound 4-coated matrix induced a 2-fold increase in cell migration to the matrix compared to DMSO-treated cells.
hMSC migration was analyzed by using calcium phosphate matrix that had been pre-adsorbed with compounds 1 or 2 (500 nM, as described in Example 5) and studied in the transwell system (2% serum, described above). Compound 1 and 2 induced 3.5-fold and 1.9-fold more cell migration than non-coated ceramic. While non-limiting, these examples show the utility of the approach for increased cell migration and localization to the calcium phosphate ceramic matrix when compounds of the disclosure are present. Use of compounds of Formula II, IV, and VI to pre-coat the ceramic and also pretreat the cells is also of utility.

[11] = tested on: hMSCs; test: TLR4/TLR3 mRNA expression ratio by qPCR in hMSCs; assay type: cell-based, human; settings: 500 nM, 8 days
Text: TLRs are modulators of hMSC differentiation. TLRs (TLR1-10) mRNA could be detected by qPCR in hMSCs. TLR4 is a biomarker for osteogenesis and TLR3 is a biomarker for adipogenesis. […]

[12] = tested on: hMSCs; test: qPCR of target gene mRNA expression in hMSCs; assay type: cell-based, human; settings: hMSCs, comparison with compound 3 and calcium phosphate ceramic
Protocol: qPCR detection of osteogenic markers: Cells were cultured with compound in the presence or absence of matrix as described above, but using 96-well plate format. Total RNA was extracted from cells (as above) using Trizol. cDNA was made using 750 ng of total RNA with Bio-Rad iscript kit and was diluted 20-fold before being used for qPCR. qPCR was conducted under the following conditions: 95° C., 2 min; 95° C., 10 s and 60° C., 45 s for 40 cycles; 60° C. for 71 cycles for melt curve. qPCR results were analyzed by the ΔΔCt method. 18s rRNA was used as an internal standard. This protocol was applied to hMSC and E15 cells.
Runx2 and BMP-2 are osteogenic markers; Axin2, Wnt3a, and Sox 9 are Wnt-inducible gene markers.
The assay for mRNA expression followed the same procedure with hMSCs as described for C2C12 cells (Example 7).

[13] = Solubility in water; assay type: physicochemical
[14] = matrix 5 mg/mL, mean +/− SD (n = 3)

- EC50 [1]: > 40 nM
- Alkaline Phosphatase activity, +matrix, 8 days [7, 14]: 2.6 ± 0.3
- Alkaline Phosphatase activity, +matrix, 25 days [7, 14]: 4.5 ± 0.4
- Alkaline Phosphatase activity, −matrix, 25 days ([7]; mean +/− SD (n = 3)): 2.6 ± 0.3
- Alkaline Phosphatase activity, −matrix, 8 days ([7]; mean +/− SD (n = 3), fold): 1.5 ± 0.1
Structure (SMILES): Cc1nc2c(-c3ccccc3)cnn2c(NCCN(C)C)c1C [Compound 2, 3-phenyl-5,6-dimethyl-7-[N-(2-N,N-dimethylaminoethyl)amino]-pyrazolo[1,5-a]pyrimidine]
- ALP activity, combination of compound and matrix compared to compound alone or matrix alone ([2]; 500 nM, 6 day incubation, tricalcium phosphate ceramic matrix 5 mg/mL (FIG. 2)): synergistic increase in ALP activity
- ALP activity fold-changes +/− SD, +matrix ([2]; 500 nM, 6 days of culture, calcium phosphate ceramic 5 mg/mL): 23.6 ± 2.5 fold
- ID3 mRNA expression, presence of matrix [3]: 1.7 fold
- calcium deposition, absence of matrix [4]: 2.0 fold
- calcium deposition, presence of matrix [4]: 2.3 fold
- cell viability (Alamar blue) ([5]; 500 nM every 48 hrs for 25 days): did not show a decrease in cell viability
- gene expression of apoptosis biomarkers (Bax and Fos) [6]: unable to detect gene expression of typical apoptosis biomarkers
- ALP functional activity, compound and matrix versus compound alone or matrix alone ([7]; 8 and 25 day incubations, matrix 5 mg/mL (FIG. 3)): exceeded the effect of compound alone or matrix alone
- cell viability (Alamar blue) [8]: no decrease in cell viability
- gene expression of apoptosis biomarkers (Bax and Fos) ([9]; 500 nM to 5 μM, up to 25 days): unable to detect gene expression of typical apoptosis biomarkers
- cytotoxicity as determined by quantification of apoptosis ([9]; hMSCs): no cytotoxicity
- cell migration to the matrix, hMSCs pre-treated with compound, versus DMSO-pre-treated cells ([10]; 8 hr pre-treatment, transwell overnight): 10 fold
- cell migration to matrix pre-adsorbed with compound versus non-coated ceramic ([10]; transwell, 2% serum): 1.9 fold
- TLR4/TLR3 ratio, compound alone [11]: modest increase

- solubility in water [13]: only sparingly soluble
Structure (SMILES): O=C(C=Cc1ccc(O)cc1)C=C(O)C=Cc1ccc(O)cc1 [Compound 54, 1,7-Bis(4-hydroxyphenyl)-5-hydroxy-hepta-1,4,6-trien-3-one]
- activation at 0.5 µM ([2]; absence of matrix): 5 to 50%
- activation at 0.5 µM ([2]; presence of calcium phosphate matrix): 50 to 100%
- increase in cell proliferation (Alamar Blue Assay) ([5]; 50 nM, 3 days): 2 fold
- robust mRNA up-regulation of VDR or ALP [12]: not observed
